Test results as given in PMC8693680 (RSC Advances, 2021).

Target: Bovine serum albumin (BSA) (Bos taurus, UniProt P02769)
Experiment: Trp fluorescence quenching
Assay type: binding
Details: 5 μM BSA, 0-15 μM dye, 10 mM HEPES pH 7.4, 298 K; double-log; n = 0.35

Sequence of Bovine serum albumin (BSA) (P02769 25-607): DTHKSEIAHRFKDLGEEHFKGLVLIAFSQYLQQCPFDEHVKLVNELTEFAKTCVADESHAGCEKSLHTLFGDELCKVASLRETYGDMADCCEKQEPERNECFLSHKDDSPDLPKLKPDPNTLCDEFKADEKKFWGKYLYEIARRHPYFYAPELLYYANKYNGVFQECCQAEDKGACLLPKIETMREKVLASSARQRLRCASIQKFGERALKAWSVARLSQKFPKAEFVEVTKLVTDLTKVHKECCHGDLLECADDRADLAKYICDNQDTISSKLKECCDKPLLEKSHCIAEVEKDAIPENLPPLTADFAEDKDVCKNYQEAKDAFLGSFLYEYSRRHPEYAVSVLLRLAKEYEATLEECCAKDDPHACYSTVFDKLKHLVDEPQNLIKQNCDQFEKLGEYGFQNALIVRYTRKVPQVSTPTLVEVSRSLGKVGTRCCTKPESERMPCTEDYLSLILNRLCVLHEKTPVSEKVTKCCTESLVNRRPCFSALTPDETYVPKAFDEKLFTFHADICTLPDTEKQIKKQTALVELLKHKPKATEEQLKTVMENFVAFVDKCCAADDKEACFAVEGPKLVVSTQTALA

c1ccc2c(c1)Nc1ccccc1S2 [PTZ] was tested, and the “Binding constant, K′” value was 6190 M⁻¹.
